Data: ChEMBL document CHEMBL4041476, “Design, selective alkylation and X-ray crystal structure determination of dihydro-indolyl-1,2,4-triazole-3-thione and its 3-benzylsulfanyl analogue as potent anticancer agents” (Eur J Med Chem, 2017)
≈ marks a conversion by molar mass, not a printed value.

Columns and labels:
[1] = tested on: MCF7; test: Antiproliferative activity against human MCF7 cells after 48 hrs by SRB assay; format: functional, cell-based; details: MCF7, 48 h
[2] = tested on: HepG2; test: Antiproliferative activity against human HepG2 cells after 48 hrs by SRB assay; format: functional, cell-based; details: HepG2, 48 h

SMILES: S=c1nc(-c2cc3ccccc3[nH]2)[nH][nH]1
- IC50 [1]: 13.8 µg/mL (≈ 63.8 µM)
- IC50 [2]: 15.9 µg/mL (≈ 73.5 µM)

SMILES: C=CCn1nc(-c2cc3ccccc3[nH]2)nc1SCc1ccccc1
- IC50 [1]: 15.5 µg/mL (≈ 44.7 µM)
- IC50 [2]: 15.9 µg/mL (≈ 45.9 µM)

SMILES: CC(=O)N[C@@H]1[C@@H](OC(C)=O)[C@H](OC(C)=O)[C@@H](COC(C)=O)O[C@H]1n1nc(-c2cc3ccccc3[nH]2)nc1SCc1ccccc1
- IC50 [1]: > 100 µg/mL
- IC50 [2]: > 100 µg/mL

SMILES: c1ccc(CSc2nc(-c3cc4ccccc4[nH]3)n[nH]2)cc1
- IC50 [1]: 4.53 µg/mL (≈ 14.8 µM)
- IC50 [2]: 3.58 µg/mL (≈ 11.7 µM)

SMILES: OCCCn1nc(SCc2ccccc2)nc1-c1cc2ccccc2[nH]1
- IC50 [1]: 16.2 µg/mL (≈ 44.4 µM)
- IC50 [2]: 11.5 µg/mL (≈ 31.6 µM)

SMILES: CC(=O)N[C@@H]1[C@@H](OC(C)=O)[C@H](OC(C)=O)[C@@H](COC(C)=O)O[C@H]1n1nc(SCc2ccccc2)nc1-c1cc2ccccc2[nH]1
- IC50 [1]: 15.9 µg/mL (≈ 25 µM)
- IC50 [2]: 16.6 µg/mL (≈ 26.1 µM)

SMILES: OCCn1nc(-c2cc3ccccc3[nH]2)nc1SCc1ccccc1
- IC50 [1]: 14.6 µg/mL (≈ 41.7 µM)
- IC50 [2]: 12.1 µg/mL (≈ 34.5 µM)

SMILES: COc1cccc2c1C(=O)c1c(O)c3c(c(O)c1C2=O)C[C@@](O)(C(=O)CO)C[C@@H]3O[C@H]1C[C@H](N)[C@H](O)[C@H](C)O1 [DOXORUBICIN]
- IC50 [1]: 4 µg/mL (≈ 7.36 µM)
- IC50 [2]: 4 µg/mL (≈ 7.36 µM)

SMILES: c1ccc(CSc2nc(-c3cc4ccccc4[nH]3)n(Cc3ccccc3)n2)cc1
- IC50 [1]: 14.8 µg/mL (≈ 37.3 µM)
- IC50 [2]: 16.3 µg/mL (≈ 41.1 µM)

SMILES: CC(=O)OC[C@H]1O[C@@H](n2nc(SCc3ccccc3)nc2-c2cc3ccccc3[nH]2)[C@H](OC(C)=O)[C@@H](OC(C)=O)[C@@H]1OC(C)=O
- IC50 [1]: 16 µg/mL (≈ 25.1 µM)
- IC50 [2]: 16.1 µg/mL (≈ 25.3 µM)

SMILES: c1ccc(CSc2nc(-c3cc4ccccc4[nH]3)nn2Cc2ccccc2)cc1
- IC50 [1]: 10.8 µg/mL (≈ 27.2 µM)
- IC50 [2]: 17.9 µg/mL (≈ 45.1 µM)
